# pKi: −log10 of the molar value.
# Legend:
# [1] = system: AKT phosphorylation in human monocyte-like cell line THP-1; assay: AKT phosphorylation inhibitory activity in MCP-1-stimulated THP-1 cells (ELISA); assay type: cell-based; details: 1 μmol/L solution of each compound, MCP-1 stimulation, read-out: AKT phosphorylation inhibition ratio
# Procedure: (1) The AKT phosphorylation inhibitory activity of a compound was evaluated according to the following procedure. (2) Human monocyte-like cell line THP-1 was washed with RPMI-1640 media, incubated in the presence of 5% CO2 at 37° C. for 3 hours, washed with Hank's balanced salt solution (HBSS), adjusted to a cell concentration of 6.6×10^6/mL, and then used in an experiment. (3) 30 μL of the cell suspension and 60 μL of each compound solution containing 0.2% DMSO/HBSS were mixed and then preincubated at 37° C. for 5 minutes. 30 μL of HBSS containing 4 μg/mL of MCP-1 was added thereto and then incubated for 30 seconds at 37° C. (4) 30 μl of a cell lysate (20 mmol/L Tris-HCl (pH 7.5), 150 mmol/L NaCl, 1 mmol/L Na2EDTA, 1 mmol/L EGTA, 1% Triton, 2.5 mmol/L sodium pyrophosphate, 1 mmol/L β-glycerophosphate, 1 mmol/L Na3VO4, 1 μg/ml leupeptin, 50 nmol/L APMSF) was added thereto to lyse cells. (5) The amount of AKT phosphorylation in the cell lysate was measured by ELISA method. (6) Anti-phospho-Akt (Ser473) antibodies (clone 193H12, derived from a rabbit) were immobilized onto the solid phase of a micro well plate. 100 μL of the prepared cell lysate was added to the micro well plate, incubated for 2 hours at 37° C., and then washed four times with Phosphate Buffered Saline containing 0.05% Tween-20. (7) An anti-AKT1 antibody (clone 2H10, derived from a mouse) was added thereto, incubated for 1 hour at 37° C., washed similarly, and then reacted with an HRP-labeled anti-mouse IgG antibody. (8) After incubating at 37° C. for 30 minutes and then washing similarly, 100 μL of TMB (3,3′,5,5″-tetramethylbenzidine) was added thereto, followed by reacting at room temperature for 30 minutes. (9) 100 μL of 1 mol/L sulfuric acid was added to quench the color reaction and then the absorbance at 450 nm was measured. (10) A series of diluted cell lysates of a positive control (a sample in the absence of a compound) were used to prepare a calibration curve, the amount of AKT phosphorylation in a sample in the absence of MCP-1 was defined as 0% activity to calculate an inhibition ratio. The measurement was performed for a 1 μmol/L solution of each compound.
# PI-3 kinase γ [2] = target: T1, PI-3 kinase γ (Homo sapiens, UniProt P48736); assay: PI3Kγ inhibitory activity, PI3-kinase HTRF assay (inhibition ratio); assay type: biochemical; details: 0.5 h; PI3Kγ, compound at 10 μM
# T1 sequence (P48736 whole entry): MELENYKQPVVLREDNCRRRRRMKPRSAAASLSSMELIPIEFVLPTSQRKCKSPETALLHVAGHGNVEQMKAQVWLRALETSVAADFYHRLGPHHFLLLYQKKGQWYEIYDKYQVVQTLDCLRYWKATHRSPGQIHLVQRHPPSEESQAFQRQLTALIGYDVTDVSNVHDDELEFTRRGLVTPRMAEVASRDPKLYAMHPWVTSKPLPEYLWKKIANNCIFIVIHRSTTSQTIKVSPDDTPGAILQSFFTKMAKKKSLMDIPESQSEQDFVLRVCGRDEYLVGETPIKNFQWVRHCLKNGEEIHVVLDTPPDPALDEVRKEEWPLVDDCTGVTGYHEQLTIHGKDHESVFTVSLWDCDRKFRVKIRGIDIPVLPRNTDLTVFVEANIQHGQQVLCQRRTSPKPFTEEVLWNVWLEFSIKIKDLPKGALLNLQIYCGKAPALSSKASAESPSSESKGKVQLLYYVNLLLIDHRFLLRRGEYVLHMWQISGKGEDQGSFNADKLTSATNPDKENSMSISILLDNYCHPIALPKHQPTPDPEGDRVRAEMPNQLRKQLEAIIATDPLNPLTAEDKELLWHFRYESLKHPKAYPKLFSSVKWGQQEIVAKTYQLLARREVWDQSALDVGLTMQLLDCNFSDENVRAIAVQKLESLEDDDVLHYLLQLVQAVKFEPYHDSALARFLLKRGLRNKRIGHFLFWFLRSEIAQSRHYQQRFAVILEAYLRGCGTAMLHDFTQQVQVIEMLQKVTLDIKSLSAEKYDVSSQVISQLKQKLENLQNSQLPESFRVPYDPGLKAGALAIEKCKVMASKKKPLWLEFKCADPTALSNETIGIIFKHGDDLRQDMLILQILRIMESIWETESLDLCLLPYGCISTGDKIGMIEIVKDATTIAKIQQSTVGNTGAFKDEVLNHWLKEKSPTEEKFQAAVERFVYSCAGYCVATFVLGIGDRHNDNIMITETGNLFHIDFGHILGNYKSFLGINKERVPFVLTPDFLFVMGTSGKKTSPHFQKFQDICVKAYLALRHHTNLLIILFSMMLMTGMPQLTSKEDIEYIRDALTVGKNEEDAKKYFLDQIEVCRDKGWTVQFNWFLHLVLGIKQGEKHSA
# Procedure, shortened: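 PI3Kγ preincubated 10 min with compound and PIP2 substrate (MgCl2, DTT), then ATP added for 30 min at room temperature. PIP3 detected by HTRF (665/620 nm ratio) after 18 h. Inhibition ratio at 50 or 10 μmol/L, normalised to no-compound and no-enzyme controls.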
# PI-3 kinase γ [3] = target: T1, PI-3 kinase γ; assay: PI3Kγ inhibitory activity (Ki value), HTRF; assay type: biochemical; details: Ki=IC50/(1+10 μM ATP/Km)
# Procedure: The PI3Kγ inhibitory activity (Ki value) of a compound was evaluated according to the following procedure:
# 5 μL of a compound solution containing 10% DMSO and 200 μmol/L of a compound was changed to 5 μL of a compound solution containing 10% DMSO and either 200, 64, 20, 6.4, 2, 0.64, or 0.20 μmol/L of the compound (optionally, this is diluted to a lower concentration). Using a method similar to the method for measuring PI3Kγ inhibitory activity, inhibition ratios were measured in the presence of the compound at 50, 16, 5, 1.6, 0.5, 0.16, and 0.05 μmol/L (optionally, a lower concentration). Then an IC50 value was calculated by a logistic approximation method or the linear regression method using two concentrations that across 50% inhibition. Separately, the ATP concentration in the reaction solution (40 μmol/L ATP, 10 mmol/L MgCl2, 5 mmol/L DTT) at the time of the start of a reaction in the absence of the compound was changed to 80, 40, 20, 10, 5, 2.5, 1.25, or 0.625 μmol/L. Then, HTRF ratios were measured by a similar method. The value obtained by subtracting the HTRF ratio at each ATP concentration from the HTRF ratio in the absence of PI-3 kinase γ was defined as the value obtained by multiplying reaction rate (v) at each ATP concentration with a constant. The Michaelis-Menten constant Km was then calculated by the Lineweaver-Burk plot method. The Ki value of a compound was calculated by the following formula.
# Ki=IC50 value/(1+10 μM (test ATP concentration)/Km (μM))
# [4] = system: Salmonella typhimurium TA98 line, TA100 line; assay: FAT test (mutagenicity); design: key: When the mutagenicity is negative, the compound is shown as (−); When positive, the compound is shown as (+); details: TA98 and TA100 lines; non-metabolism-activation and metabolism-activation conditions
# Procedure: 20 μL of Salmonella enterica subsp. typhimurium (Salmonella typhimurium TA98 line, TA100 line) cryopreserved was inoculated to 10 mL of liquid nutrient medium (2.5% Oxoid nutrient broth No. 2) and then precultured at 37° C. for 10 hours with shaking. Regarding TA98 line, after 9 mL of a bacterial suspension was centrifuged (2000×g, 10 minutes) to remove the culture solution, the bacteria was suspended in 9 mL of Micro F buffer solution (K2HPO4: 3.5 g/L, KH2PO4: 1 g/L, (NH4)2SO4: 1 g/L, tri-sodium citric acid dihydrate: 0.25 g/L, MgSO4.7H2O: 0.1 g/L), and then added to 110 mL of Exposure media (Micro F buffer solution containing biotin: 8 μg/mL, histidine: 0.2 μg/mL, glucose: 8 mg/mL). Regarding TA 100 line, 120 mL of Exposure media was added to 3.16 mL of the bacterial suspension to prepare a test bacterial suspension. 12 μL of a solution of a test substance in DMSO (diluted eight times in a common ratio of 2 from the maximum dose of 50 mg/mL); 12 μL of DMSO as a negative control; 50 μg/mL 4-nitroquinoline-1-oxide solution in DMSO for TA98 line or 0.25 μg/mL 2-(2-furyl)-3-(5-nitro-2-furyl)acrylamide solution in DMSO as a positive control for TA 100 line in the case of a non-metabolism-activation condition; 12 μL of 40 μg/mL 2-aminoanthracene solution in DMSO for TA98 line or 20 μg/mL of 2-aminoanthracene solution in DMSO for TA100 line in the case of a metabolism-activation condition; were each mixed with 588 μL of the test bacterial suspension (in the case of a metabolism activation condition, a mixed solution of 498 μL of the test bacterial suspension and 90 μL S9 mix) and then cultured at 37° C. at 90 minutes with shaking. 460 μL of the bacterial suspension to which a test substance was exposed was mixed with 230 μL of Indicator media (a Micro F buffer solution containing 8 μg/mL biotin, 0.2 μg/mL histidine, 8 mg/mL glucose, and 37.5 μg/mL bromocresol purple). 50 μL thereof was dispensed to microplate 48 wells/dose and then statically cultured at 37° C. for 3 days. In a well containing bacteria which obtained proliferation potency by mutation of the amino acid (histidine) synthetase gene, the change of pH caused the color change from purple to yellow. Thus, in 48 wells per dose, the number of the bacteria-proliferation wells in which the color changed to yellow was counted, compared with a group of negative controls, and then evaluated. When the mutagenicity is negative, the compound is shown as (−). When positive, the compound is shown as (+).
structure (smiles),measurement,setting,value
COc1cc(N2CCc3nc(NC(=O)NCCC(=O)N4CCCCC4)sc3C2)nc(OC)n1 [Compound I-266],inhibition,[1],> 99.5%
same,inhibition at 10 µM,PI-3 kinase γ [2],≥ 95%
same,pKi,PI-3 kinase γ [3],7.44
same,mutagenicity (FAT test),[4],(−)
